This is an account of results in patent publication US5021413A (priority 1988, dated 1991).

One may read the IC50 as the concentration at which inhibition is half-maximal. As a reminder, the ED50 is the dose that gives a 50% effect, or the effect in half of the subjects.

Each structure is given as a SMILES string. Where a name gives a salt, the structure may show the parent alone.

For assay [1], the system named is p-phenylquinone-induced writhing in mice. Description: animal or person. The class given is in vivo, mouse (male ddY mice). As to conditions: sc; for Analgesic effect, phenylquinone-induced writhing at 320 μg/kg (analgesic-effective animals/all animals): mouse, in vivo; for ED50: Mus musculus, read-out: Analgesic effect, phenylquinone-induced writhing, ED50. (Writhing tests count abdominal constrictions after an irritant is injected.)

Another assay has as its target T1, κ-receptors (Cavia porcellus, UniProt P41144).
T1 construct: A raw preparation from brain membrane was made; tissue Japan SLC; host or cells: guinea pig whole brain without cerebellum, crude membranes
Description: biochemical. Type of assay: binding, guinea pig (male Hartley).

The next assay deals with T2, μ-receptors (Cavia porcellus, UniProt A0ACM8Q262).
T2 construct: [3H]DAGO (DAMGO) displacement
Details: species or system guinea pig (male Hartley). As to conditions: read-out: Binding to opioid receptors, μ (IC50).

T1 sequence (P41144 whole entry): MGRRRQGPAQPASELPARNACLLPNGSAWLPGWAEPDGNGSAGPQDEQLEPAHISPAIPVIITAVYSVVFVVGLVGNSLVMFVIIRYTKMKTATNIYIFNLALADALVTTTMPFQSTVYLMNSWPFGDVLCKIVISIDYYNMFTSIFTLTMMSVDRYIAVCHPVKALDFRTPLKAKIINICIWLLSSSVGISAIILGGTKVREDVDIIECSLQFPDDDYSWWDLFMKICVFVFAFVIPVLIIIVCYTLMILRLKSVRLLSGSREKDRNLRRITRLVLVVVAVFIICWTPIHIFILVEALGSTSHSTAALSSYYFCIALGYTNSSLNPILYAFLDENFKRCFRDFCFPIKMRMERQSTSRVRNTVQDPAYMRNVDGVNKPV
T2 sequence (A0ACM8Q262 1-400): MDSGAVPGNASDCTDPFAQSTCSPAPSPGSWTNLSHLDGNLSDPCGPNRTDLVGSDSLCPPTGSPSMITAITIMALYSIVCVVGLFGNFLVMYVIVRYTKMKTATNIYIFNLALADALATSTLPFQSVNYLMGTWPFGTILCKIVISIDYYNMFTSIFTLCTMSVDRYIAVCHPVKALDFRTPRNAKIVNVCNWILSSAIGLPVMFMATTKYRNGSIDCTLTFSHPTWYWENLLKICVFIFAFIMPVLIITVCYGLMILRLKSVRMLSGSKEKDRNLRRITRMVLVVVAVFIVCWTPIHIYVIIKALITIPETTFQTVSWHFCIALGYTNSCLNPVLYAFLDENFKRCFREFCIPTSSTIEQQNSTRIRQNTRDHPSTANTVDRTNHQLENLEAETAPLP

As to `O=C(Cc1ccc(Cl)c(Cl)c1)N1CCSCC1CN1CCCC1` (stereo not shown) [Example 17, 4-(3,4-dichlorophenylacetyl)-3-(pyrrolidin-1-ylmethyl)thiomorpholine hydrochloride], in assay [1], the “Analgesic effect, phenylquinone-induced writhing at 320 μg/kg (analgesic-effective animals/all animals)” value is listed as 5/5. The concentration for half-maximal inhibition (IC50) against κ-receptors came out at 1.1 nM.
Consider `O=C1C[C@H](C(=O)N2CCCC[C@H]2CN2CCCC2)c2cc(Cl)c(Cl)cc21` (relative stereo) [Example 4-D1, 1-[(1S*)-5,6-dichloro-3-oxoindan-1-carbonyl)-(2S*)-2-pyrrolidin-1-ylmethyl)piperidine], for which the ED50 in assay [1] is 3.43 µg/kg. The half-maximal inhibitory concentration (IC50) on μ-receptors is 531 nM; against κ-receptors, 1.4 nM.
Turning to `CN1CC[C@]23c4c5ccc(O)c4O[C@H]2[C@@H](O)C=C[C@H]3[C@H]1C5.Cl` [Morphine HCl, reference compound], the “Analgesic effect, phenylquinone-induced writhing at 320 μg/kg (analgesic-effective animals/all animals)” value in assay [1] was 2/5.
Turning to `O=C1C[C@H](C(=O)N2CCCC[C@H]2CN2CCCC2)c2cc(Cl)c(Cl)cc21` [Example 2-E1, 1-[(1S)-5,6-dichloro-3-oxoindan-1-carbonyl]-(2S)-2-(pyrrolidin-1-ylmethyl)piperidine], the median effective dose (ED50) in assay [1] stood at 1.73 µg/kg. The IC50 at μ-receptors was 232 nM; on κ-receptors, 0.9 nM.
For `O=C([C@H]1CCc2cc(Cl)c(Cl)cc21)N1CCSC[C@@H]1CN1CCCC1` (relative stereo) [Example 41-D1, 4-[(1S*)-5,6-dichloroindan-1-carbonyl]-(3S*)-3-(pyrrolidin-1-ylmethyl)thiomorpholine] the same measures were 1.3 µg/kg, 698 nM and 0.67 nM.
For `O=C1CC(C(=O)N2CCCCC2CN2CCCC2)c2cc(Cl)c(Cl)cc21` (stereo not shown) [Example 1, 1-(5,6-dichloro-3-oxoindan-1-carbonyl)-2-(pyrrolidin-1-yl-methyl)piperidinehydrochloride] the same measures were 6.2 µg/kg, 1070 nM and 1.75 nM.
The like results for `O=C1CC(C(=O)N2CCSCC2CN2CCCC2)c2cc(Cl)c(Cl)cc21` (stereo not shown) [Example 36, 4-(5,6-dichloro-3-oxoindan-1-carbonyl)-3-(pyrrolidin-1-ylmethyl)thiomorpholine hydrochloride] were, in that order, 3.4 µg/kg, 1140 nM and 2.4 nM.
Take `O=C1C[C@@H](C(=O)N2CCCC[C@H]2CN2CCCC2)c2cc(Cl)c(Cl)cc21` [Example 2-E2, 1-[(1R)-5,6-dichloro-3-oxoindan-1-carbonyl]-(2S)-2-(pyrrolidin-1-ylmethyl)piperidine]: the median effective dose (ED50) in assay [1] was found to be 320 µg/kg. At κ-receptors, half-maximal inhibition (IC50) required 258 nM.
The like results for `O=C1C[C@@H](C(=O)N2CCCC[C@H]2CN2CCCC2)c2cc(Cl)c(Cl)cc21` (relative stereo) [Example 4-D2, 1-[(1R*)-5,6-dichloro-3-oxoindan-1-carbonyl](2S*)-2-(pyrrolidin-1-ylmethyl)piperidine] were, in that order, 270 µg/kg and 366 nM.
